Results from patent US20160122820A1, “Screening Method for Identifying Active Agents” (Avon Products, Inc., priority 2014, published 2016).
Each block holds one compound with its values, some of them ahead of it.

Test system: human skin
Details: for CYP7B1 gene expression (fold change): in vivo; for BIRC3 gene expression (fold change) / C1orf162 gene expression (fold change) / CCR2 gene expression (fold change) / CD1B gene expression (fold change) / CD2 gene expression (fold change) / CD53 gene expression (fold change) / CD86 gene expression (fold change) / CD226 gene expression (fold change) / CHRM4 gene expression (fold change) / CLEC7A gene expression (fold change) / COL3A1 gene expression (fold change) / COL5A2 gene expression (fold change) / COL6A6 gene expression (fold change) / COL14A1 gene expression (fold change) / CTSS gene expression (fold change) / CYBB gene expression (fold change) / CYTIP gene expression (fold change) / DIO2 gene expression (fold change) / EVI2B gene expression (fold change) / FAP gene expression (fold change) / FCGR2A gene expression (fold change) / FPR3 gene expression (fold change) / FYB gene expression (fold change) / GDPD2 gene expression (fold change) / GLIPR1 gene expression (fold change) / GMFG gene expression (fold change) / GPR174 gene expression (fold change) / GZMK gene expression (fold change) / HIST1H3A gene expression (fold change) / HLA-DPA1 gene expression (fold change) / HLA-DQA1 gene expression (fold change) / HLA-DRA gene expression (fold change) / IFI44L gene expression (fold change) / IFI44 gene expression (fold change) / IL33 gene expression (fold change) / IRF8 gene expression (fold change) / KIAA0226L gene expression (fold change) / KLRB1 gene expression (fold change) / LYZ gene expression (fold change) / MIRLET7C gene expression (fold change) / MNDA gene expression (fold change) / OCA2 gene expression (fold change) / PARP14 gene expression (fold change) / PCSK2 gene expression (fold change) / PLAC8 gene expression (fold change) / PLEK gene expression (fold change) / PTPRC gene expression (fold change) / RGS1 gene expression (fold change) / RNASE6 gene expression (fold change) / SAMD9 gene expression (fold change) / SELL gene expression (fold change) / SPP1 gene expression (fold change) / SRGN gene expression (fold change) / ST8SIA4 gene expression (fold change) / TPPP gene expression (fold change) / TRPM1 gene expression (fold change) / UGT2A1 gene expression (fold change) / VCAM1 gene expression (fold change): photodamaged forearm skin, 0.02% partially occlusive patch 30 days, 30-day biopsy relative to baseline, negative = downregulated

- CYP7B1 gene expression (fold change): 1.320 fold change
Compound: CC1=C(/C=C/C(C)=C/C=C/C(C)=C/C(=O)O)C(C)(C)CCC1 [RA, retinoic acid]
- BIRC3 gene expression (fold change): 1.555 fold change
- C1orf162 gene expression (fold change): 1.356 fold change
- CCR2 gene expression (fold change): 1.658 fold change
- CD1B gene expression (fold change): 1.510 fold change
- CD2 gene expression (fold change): 1.339 fold change
- CD53 gene expression (fold change): 1.586 fold change
- CD86 gene expression (fold change): 1.468 fold change
- CD226 gene expression (fold change): 1.423 fold change
- CHRM4 gene expression (fold change): −1.326 fold change
- CLEC7A gene expression (fold change): 1.964 fold change
- COL3A1 gene expression (fold change): 1.443 fold change
- COL5A2 gene expression (fold change): 1.369 fold change
- COL6A6 gene expression (fold change): 2.091 fold change
- COL14A1 gene expression (fold change): 1.311 fold change
- CTSS gene expression (fold change): 1.302 fold change
- CYBB gene expression (fold change): 1.637 fold change
- CYTIP gene expression (fold change): 1.336 fold change
- DIO2 gene expression (fold change): −1.548 fold change
- EVI2B gene expression (fold change): 1.405 fold change
- FAP gene expression (fold change): 1.370 fold change
- FCGR2A gene expression (fold change): 1.366 fold change
- FPR3 gene expression (fold change): 1.439 fold change
- FYB gene expression (fold change): 1.483 fold change
- GDPD2 gene expression (fold change): −2.585 fold change
- GLIPR1 gene expression (fold change): 1.422 fold change
- GMFG gene expression (fold change): 1.358 fold change
- GPR174 gene expression (fold change): 1.411 fold change
- GZMK gene expression (fold change): 1.571 fold change
- HIST1H3A gene expression (fold change): 1.375 fold change
- HLA-DPA1 gene expression (fold change): 1.466 fold change
- HLA-DQA1 gene expression (fold change): 1.594 fold change
- HLA-DRA gene expression (fold change): 1.403 fold change
- IFI44L gene expression (fold change): 1.472 fold change
- IFI44 gene expression (fold change): 1.337 fold change
- IL33 gene expression (fold change): 1.587 fold change
- IRF8 gene expression (fold change): 1.725 fold change
- KIAA0226L gene expression (fold change): 1.307 fold change
- KLRB1 gene expression (fold change): 1.363 fold change
- LYZ gene expression (fold change): 2.271 fold change
- MIRLET7C gene expression (fold change): −1.319 fold change
- MNDA gene expression (fold change): 1.406 fold change
- OCA2 gene expression (fold change): −1.432 fold change
- PARP14 gene expression (fold change): 1.364 fold change
- PCSK2 gene expression (fold change): −1.825 fold change
- PLAC8 gene expression (fold change): 1.844 fold change
- PLEK gene expression (fold change): 1.667 fold change
- PTPRC gene expression (fold change): 1.606 fold change
- RGS1 gene expression (fold change): 1.503 fold change
- RNASE6 gene expression (fold change): 1.540 fold change
- SAMD9 gene expression (fold change): 5.339 fold change
- SELL gene expression (fold change): 1.691 fold change
- SPP1 gene expression (fold change): 1.416 fold change
- SRGN gene expression (fold change): 1.569 fold change
- ST8SIA4 gene expression (fold change): 1.389 fold change
- TPPP gene expression (fold change): −1.402 fold change
- TRPM1 gene expression (fold change): −1.306 fold change
- UGT2A1 gene expression (fold change): −1.369 fold change
- VCAM1 gene expression (fold change): 1.730 fold change

- CYP7B1 gene expression (fold change): 1.309 fold change
Compound: CC1=C(/C=C/C(C)=C/C=C/C(C)=C/CO)C(C)(C)CCC1 [Retinol, retinol]
- BIRC3 gene expression (fold change): 1.815 fold change
- C1orf162 gene expression (fold change): 1.301 fold change
- CCR2 gene expression (fold change): 1.416 fold change
- CD1B gene expression (fold change): 1.844 fold change
- CD2 gene expression (fold change): 1.311 fold change
- CD53 gene expression (fold change): 1.483 fold change
- CD86 gene expression (fold change): 1.348 fold change
- CD226 gene expression (fold change): 1.396 fold change
- CHRM4 gene expression (fold change): −1.401 fold change
- CLEC7A gene expression (fold change): 1.502 fold change
- COL3A1 gene expression (fold change): 1.455 fold change
- COL5A2 gene expression (fold change): 1.380 fold change
- COL6A6 gene expression (fold change): 2.245 fold change
- COL14A1 gene expression (fold change): 1.408 fold change
- CTSS gene expression (fold change): 1.514 fold change
- CYBB gene expression (fold change): 1.413 fold change
- CYTIP gene expression (fold change): 1.481 fold change
- DIO2 gene expression (fold change): −1.384 fold change
- EVI2B gene expression (fold change): 1.323 fold change
- FAP gene expression (fold change): 1.518 fold change
- FCGR2A gene expression (fold change): 1.346 fold change
- FPR3 gene expression (fold change): 1.321 fold change
- FYB gene expression (fold change): 1.404 fold change
- GDPD2 gene expression (fold change): −1.363 fold change
- GLIPR1 gene expression (fold change): 1.450 fold change
- GMFG gene expression (fold change): 1.300 fold change
- GPR174 gene expression (fold change): 1.339 fold change
- GZMK gene expression (fold change): 1.402 fold change
- HIST1H3A gene expression (fold change): −1.363 fold change
- HLA-DPA1 gene expression (fold change): 1.364 fold change
- HLA-DQA1 gene expression (fold change): 1.378 fold change
- HLA-DRA gene expression (fold change): 1.439 fold change
- IFI44L gene expression (fold change): 1.320 fold change
- IFI44 gene expression (fold change): 1.429 fold change
- IL33 gene expression (fold change): 1.360 fold change
- IRF8 gene expression (fold change): 1.392 fold change
- KIAA0226L gene expression (fold change): 1.371 fold change
- KLRB1 gene expression (fold change): 1.377 fold change
- LYZ gene expression (fold change): 1.603 fold change
- MIRLET7C gene expression (fold change): 1.366 fold change
- MNDA gene expression (fold change): 1.805 fold change
- OCA2 gene expression (fold change): −1.334 fold change
- PARP14 gene expression (fold change): 1.356 fold change
- PCSK2 gene expression (fold change): −1.566 fold change
- PLAC8 gene expression (fold change): 1.434 fold change
- PLEK gene expression (fold change): 1.449 fold change
- PTPRC gene expression (fold change): 1.446 fold change
- RGS1 gene expression (fold change): 1.379 fold change
- RNASE6 gene expression (fold change): 1.452 fold change
- SAMD9 gene expression (fold change): 1.382 fold change
- SELL gene expression (fold change): 1.304 fold change
- SPP1 gene expression (fold change): 1.604 fold change
- SRGN gene expression (fold change): 1.353 fold change
- ST8SIA4 gene expression (fold change): 1.366 fold change
- TPPP gene expression (fold change): −1.328 fold change
- TRPM1 gene expression (fold change): −1.431 fold change
- UGT2A1 gene expression (fold change): −1.696 fold change
- VCAM1 gene expression (fold change): 1.357 fold change
